≈ marks a conversion by molar mass, not a printed value. Calls of active or inactive are those of the source. The calls are words filed in the database; no cut-off is given here.
Assays:
Cell membrane = experiment: Induction of membrane depolarization in methicillin-resistant Staphylococcus aureus 3 assessed as increase in fluorescence intensity at 32 ug/ml measured every 2 mins for 20 mins by SYTOX-green dye based fluorescence assay; type: subcellular; conditions: dose 32.0 µg/ml
[1] = Toxicity in KM mouse infected with methicillin-resistant Staphylococcus aureus 3 assessed as histopathological abnormalities in heart at 5 mg/kg administered into skin infection site measured after 24 hrs by H and E staining based analysis; type: organism-based; conditions: in vivo, topical_or_ocular
[2] = Toxicity in KM mouse infected with methicillin-resistant Staphylococcus aureus 3 assessed as histopathological abnormalities in spleen at 5 mg/kg administered into skin infection site measured after 24 hrs by H and E staining based analysis; type: organism-based; conditions: in vivo, topical_or_ocular
Staphylococcus aureus [3] = experiment: Antibacterial activity against methicillin-resistant Staphylococcus aureus 3 infected in KM mouse assessed as reduction in bacterial load at infection site at 5 mg/kg administered into skin infection site measured after 24 hrs relative to control; type: functional; design: scale not given: the % may be the effect or the level left
[4] = Toxicity in KM mouse infected with methicillin-resistant Staphylococcus aureus 3 assessed as heart damage at 5 mg/kg administered into skin infection site measured after 24 hrs by H and E staining based analysis; type: organism-based; conditions: in vivo, topical_or_ocular
[5] = Toxicity in KM mouse infected with methicillin-resistant Staphylococcus aureus 3 assessed as kidneys damage at 5 mg/kg administered into skin infection site measured after 24 hrs by H and E staining based analysis; type: organism-based; conditions: in vivo, topical_or_ocular
[6] = Toxicity in KM mouse infected with methicillin-resistant Staphylococcus aureus 3 assessed as swelling of renal tubular epithelial cells with granular degeneration at 5 mg/kg administered into skin infection site measured after 24 hrs by H and E staining based analysis; type: organism-based; conditions: in vivo, topical_or_ocular
Staphylococcus aureus [7] = experiment: Antibacterial activity against methicillin-resistant Staphylococcus aureus 3 infected in KM mouse assessed as reduction in abscesses inside the skin at 5 mg/kg administered into skin infection site measured after 24 hrs; type: functional, organism-based
[8] = Toxicity in KM mouse infected with methicillin-resistant Staphylococcus aureus 3 assessed as lung damage at 5 mg/kg administered into skin infection site measured after 24 hrs by H and E staining based analysis; type: organism-based; conditions: in vivo, topical_or_ocular
Staphylococcus aureus [9] = experiment: Antibacterial activity against methicillin-resistant Staphylococcus aureus 3 infected in KM mouse assessed as reduction in size of abscesses at 5 mg/kg administered into skin infection site measured after 24 hrs; type: functional, organism-based
[10] = Toxicity in KM mouse infected with methicillin-resistant Staphylococcus aureus 3 assessed as histopathological abnormalities in lungs at 5 mg/kg administered into skin infection site measured after 24 hrs by H and E staining based analysis; type: organism-based; conditions: in vivo, topical_or_ocular
Staphylococcus aureus [11] = experiment: Antibacterial activity against methicillin-resistant Staphylococcus aureus 3 infected in KM mouse assessed as reduction in bacterial load at infection site by measuring colony forming units at 5 mg/kg administered into skin infection site measured after 24 hrs; type: functional
[12] = Toxicity in KM mouse infected with methicillin-resistant Staphylococcus aureus 3 assessed as multifocal enlargement of hepatocytes with cytoplasmic foamy swelling at 5 mg/kg administered into skin infection site measured after 24 hrs by H and E staining based analysis; type: organism-based; conditions: in vivo, topical_or_ocular
Staphylococcus aureus [13] = experiment: Antibacterial activity against methicillin-resistant Staphylococcus aureus 3 infected in KM mouse assessed as reduction in inflammatory cells in subcutaneous tissue at 5 mg/kg administered into skin infection site measured after 24 hrs by H and E staining based analysis; type: functional, organism-based
[14] = Toxicity in KM mouse infected with methicillin-resistant Staphylococcus aureus 3 assessed as spleen damage at 5 mg/kg administered into skin infection site measured after 24 hrs by H and E staining based analysis; type: organism-based; conditions: in vivo, topical_or_ocular
Staphylococcus aureus [15] = experiment: Antibacterial activity against methicillin-resistant Staphylococcus aureus 3 infected in KM mouse assessed as reduction in abscesses on dorsal surface of skin at 5 mg/kg administered into skin infection site measured after 24 hrs; type: functional, organism-based
[16] = Toxicity in KM mouse infected with methicillin-resistant Staphylococcus aureus 3 assessed as vacuolar degeneration in the kidneys at 5 mg/kg administered into skin infection site measured after 24 hrs by H and E staining based analysis; type: organism-based; conditions: in vivo, topical_or_ocular
[17] = Toxicity in KM mouse infected with methicillin-resistant Staphylococcus aureus 3 assessed as liver damage at 5 mg/kg administered into skin infection site measured after 24 hrs by H and E staining based analysis; type: organism-based; conditions: in vivo, topical_or_ocular
Staphylococcus aureus [18] = experiment: Induction of drug resistance in Staphylococcus aureus ATCC 29213 assessed as fold increase in MIC at 0.5 times MIC measured for 20 passages relative to control; type: functional
[19] = Hemolytic activity in sheep erythrocytes incubated for 1 hr by absorbance based analysis; type: toxicity, cell-based, Ovis aries, Erythrocyte
Staphylococcus aureus [20] = experiment: Antibacterial activity against methicillin-resistant Staphylococcus aureus clinical isolate 6 incubated for 16 to 18 hrs by CLSI-based microbroth dilution method; type: functional; conditions: time 16-18 hrs
Staphylococcus aureus [21] = experiment: Antibacterial activity against methicillin-resistant Staphylococcus aureus clinical isolate 5 incubated for 16 to 18 hrs by CLSI-based microbroth dilution method; type: functional; conditions: time 16-18 hrs
Staphylococcus aureus [22] = experiment: Antibacterial activity against methicillin-resistant Staphylococcus aureus clinical isolate 3 incubated for 16 to 18 hrs by CLSI-based microbroth dilution method; type: functional; conditions: time 16-18 hrs
Staphylococcus aureus [23] = experiment: Antibacterial activity against methicillin-resistant Staphylococcus aureus clinical isolate 2 incubated for 16 to 18 hrs by CLSI-based microbroth dilution method; type: functional; conditions: time 16-18 hrs
Staphylococcus aureus [24] = experiment: Antibacterial activity against methicillin-resistant Staphylococcus aureus clinical isolate 1 incubated for 16 to 18 hrs by CLSI-based microbroth dilution method; type: functional; conditions: time 16-18 hrs
Staphylococcus aureus [25] = experiment: Antibacterial activity against methicillin-resistant Staphylococcus aureus clinical isolate 10 incubated for 16 to 18 hrs by CLSI-based microbroth dilution method; type: functional; conditions: time 16-18 hrs
Staphylococcus aureus [26] = experiment: Antibacterial activity against Staphylococcus aureus A7 assessed as inhibition of bacterial growth by CLSI based microdilution broth assay; type: functional
Staphylococcus aureus [27] = experiment: Antibacterial activity against Staphylococcus aureus ATCC 29213 assessed as inhibition of bacterial growth by CLSI based microdilution broth assay; type: functional
Staphylococcus aureus [28] = experiment: Antibacterial activity against Staphylococcus aureus ATCC 29213 incubated for 16 to 18 hrs by CLSI-based microbroth dilution method; type: functional; conditions: time 16-18 hrs
Staphylococcus aureus [29] = experiment: Antibacterial activity against methicillin-resistant Staphylococcus aureus clinical isolate 7 incubated for 16 to 18 hrs by CLSI-based microbroth dilution method; type: functional; conditions: time 16-18 hrs
Staphylococcus aureus [30] = experiment: Antibacterial activity against methicillin-resistant Staphylococcus aureus clinical isolate 9 incubated for 16 to 18 hrs by CLSI-based microbroth dilution method; type: functional; conditions: time 16-18 hrs
Staphylococcus aureus [31] = experiment: Antibacterial activity against methicillin-resistant Staphylococcus aureus clinical isolate 4 incubated for 16 to 18 hrs by CLSI-based microbroth dilution method; type: functional; conditions: time 16-18 hrs
Staphylococcus aureus [32] = experiment: Antibacterial activity against Staphylococcus aureus D5 assessed as inhibition of bacterial growth by CLSI based microdilution broth assay; type: functional
Staphylococcus aureus [33] = experiment: Antibacterial activity against methicillin-resistant Staphylococcus aureus clinical isolate 8 incubated for 16 to 18 hrs by CLSI-based microbroth dilution method; type: functional; conditions: time 16-18 hrs

Row | Compound | HC50 at 1 h [19] | MIC (Staphylococcus aureus [20]) | MIC (Staphylococcus aureus [21]) | MIC (Staphylococcus aureus [22]) | MIC (Staphylococcus aureus [23]) | MIC (Staphylococcus aureus [24]) | MIC (Staphylococcus aureus [25]) | MIC (Staphylococcus aureus [28]) | MIC (Staphylococcus aureus [29]) | MIC (Staphylococcus aureus [30]) | MIC (Staphylococcus aureus [31]) | MIC (Staphylococcus aureus [33]) | also measured
1 | CC[C@H](C)[C@H](NC(=O)CN)C(=O)NCC(=O)N[C@@H](C)C(=O)N[C@H](C(=O)N[C@@H](CC(C)C)C(=O)N[C@@H](CCCCN)C(=O)N[C@H](C(=O)N[C@@H](CC(C)C)C(=O)N[C@H](C(=O)N[C@H](C(=O)NCC(=O)N[C@@H](CC(C)C)C(=O)N1CCC[C@H]1C(=O)N[C@@H](C)C(=O)N[C@@H](CC(C)C)C(=O)N[C@H](C(=O)N[C@@H](CO)C(=O)N[C@@H](Cc1c[nH]c2ccccc12)C(=O)N[C@H](C(=O)N[C@@H](CCCCN)C(=O)N[C@@H](CCCNC(=N)N)C(=O)N[C@@H](CCCCN)C(=O)N[C@@H](CCCNC(=N)N)C(=O)N[C@@H](CCC(N)=O)C(=O)N[C@@H](CCC(N)=O)C(N)=O)[C@@H](C)CC)[C@@H](C)CC)[C@@H](C)O)[C@@H](C)O)C(C)C)C(C)C |  |  |  |  |  |  |  |  |  |  |  |  | Activity (Cell membrane): Active
2 | CN[C@H](CC(C)C)C(=O)N[C@H]1C(=O)N[C@@H](CC(N)=O)C(=O)N[C@H]2C(=O)N[C@H]3C(=O)N[C@H](C(=O)N[C@H](C(=O)O)c4cc(O)cc(O)c4-c4cc3ccc4O)[C@H](O)c3ccc(c(Cl)c3)Oc3cc2cc(c3O[C@@H]2O[C@H](CO)[C@@H](O)[C@H](O)[C@H]2O[C@H]2C[C@](C)(N)[C@H](O)[C@H](C)O2)Oc2ccc(cc2Cl)[C@H]1O [VANCOMYCIN] |  |  |  |  |  |  |  |  |  |  |  |  | Activity [1]: Non-Toxic; Activity [2]: Non-Toxic; Activity (Staphylococcus aureus [3]): 99.479%; Activity [4]: Non-Toxic; Activity [5]: Non-Toxic; Activity [6]: Non-Toxic; Activity (Staphylococcus aureus [7]): inactive; Activity [8]: Non-Toxic; Activity (Staphylococcus aureus [9]): Active; Activity [10]: Non-Toxic; Activity (Staphylococcus aureus [11]): 2.2 log10CFU/g; Activity [12]: Non-Toxic; Activity (Staphylococcus aureus [13]): Active; Activity [14]: Non-Toxic; Activity (Staphylococcus aureus [15]): inactive; Activity [16]: Non-Toxic; Activity [17]: Non-Toxic
3 | CCn1cc(C(=O)O)c(=O)c2cc(F)c(N3CCNCC3)cc21 |  |  |  |  |  |  |  |  |  |  |  |  | fold change (FC) (Staphylococcus aureus [18]): 128
4 | COc1cc(O)c(CC=C(C)C)c(O)c1C(=O)/C=C/c1ccc(O)cc1 [XANTHOHUMOL] | 196 µg/mL | 16 mg/L (≈ 45.1 µM) | 8 mg/L (≈ 22.6 µM) | 8 mg/L (≈ 22.6 µM) | 8 mg/L (≈ 22.6 µM) | 8 mg/L (≈ 22.6 µM) | 8 mg/L (≈ 22.6 µM) | 16 mg/L (≈ 45.1 µM) | 8 mg/L (≈ 22.6 µM) | 8 mg/L (≈ 22.6 µM) | 4 mg/L (≈ 11.3 µM) | 8 mg/L (≈ 22.6 µM) | MIC (Staphylococcus aureus [26]): 15.6 mg/L (≈ 44 µM); MIC (Staphylococcus aureus [27]): 15.6 mg/L (≈ 44 µM); MIC (Staphylococcus aureus [32]): 15.6 mg/L (≈ 44 µM)
5 | CCCCN(CCCC)C(=O)C[N+](C)(C)CCCOc1ccc(/C=C/C(=O)c2c(OC)cc3c(c2O)C=CC(C)(C)O3)cc1.[Br-] | 434 µg/mL | 1 mg/L | 1 mg/L | 2 mg/L | 2 mg/L | 2 mg/L | 2 mg/L | 2 mg/L | 1 mg/L | 2 mg/L | 2 mg/L | 1 mg/L | 
6 | CCCNC(=O)C[N+](C)(C)CCCCOc1ccc(/C=C/C(=O)c2c(OC)cc3c(c2O)C=CC(C)(C)O3)cc1.[Br-] | 410 µg/mL | 2 mg/L | 4 mg/L | 2 mg/L | 2 mg/L | 2 mg/L | 4 mg/L | 4 mg/L | 2 mg/L | 2 mg/L | 4 mg/L | 2 mg/L | 
7 | CCCCNC(=O)C[N+](C)(C)CCCCOc1ccc(/C=C/C(=O)c2c(OC)cc3c(c2O)C=CC(C)(C)O3)cc1.[Br-] | 220 µg/mL | 2 mg/L | 2 mg/L | 2 mg/L | 2 mg/L | 2 mg/L | 4 mg/L | 4 mg/L | 2 mg/L | 2 mg/L | 2 mg/L | 4 mg/L | 
8 | CCCCNC(=O)C[N+](C)(C)CCCOc1ccc(/C=C/C(=O)c2c(OC)cc3c(c2O)C=CC(C)(C)O3)cc1.[Br-] | 58.3 µg/mL | 2 mg/L | 2 mg/L | 1 mg/L | 2 mg/L | 2 mg/L | 4 mg/L | 2 mg/L | 2 mg/L | 1 mg/L | 2 mg/L | 2 mg/L | 
9 | COc1cc2c(c(O)c1C(=O)/C=C/c1ccc(OCCC[N+](C)(C)CC(=O)N3CCSCC3)cc1)C=CC(C)(C)O2.[Br-] | 416 µg/mL | 2 mg/L | 2 mg/L | 2 mg/L | 2 mg/L | 4 mg/L | 4 mg/L | 2 mg/L | 2 mg/L | 2 mg/L | 4 mg/L | 2 mg/L | 
10 | COc1cc2c(c(O)c1C(=O)/C=C/c1ccc(OCCCCC[N+](C)(C)CC(=O)N3CCSCC3)cc1)C=CC(C)(C)O2.[Br-] | 210 µg/mL | 2 mg/L | 4 mg/L | 4 mg/L | 4 mg/L | 8 mg/L | 1 mg/L | 4 mg/L | 4 mg/L | 1 mg/L | 4 mg/L | 4 mg/L | 
11 | CCCN(CCC)C(=O)C[N+](C)(C)CCCCCOc1ccc(/C=C/C(=O)c2c(OC)cc3c(c2O)C=CC(C)(C)O3)cc1.[Br-] | 436 µg/mL | 1 mg/L | 2 mg/L | 2 mg/L | 4 mg/L | 4 mg/L | 2 mg/L | 2 mg/L | 2 mg/L | 1 mg/L | 2 mg/L | 2 mg/L | 
12 | CCCN(CCC)C(=O)C[N+](C)(C)CCCOc1ccc(/C=C/C(=O)c2c(OC)cc3c(c2O)C=CC(C)(C)O3)cc1.[Br-] | 118 µg/mL | 2 mg/L | 2 mg/L | 1 mg/L | 2 mg/L | 2 mg/L | 2 mg/L | 2 mg/L | 1 mg/L | 1 mg/L | 2 mg/L | 2 mg/L | 

From ChEMBL document CHEMBL5316298, “Discovery of Amphiphilic Xanthohumol Derivatives as Membrane-Targeting Antimicrobials against Methicillin-Resistant Staphylococcus aureus” (J Med Chem, 2023)
